One series has as its target PD-L1 (Homo sapiens (Human), UniProt Q9NZQ7). In words: PD-L1 whole blood internalization assay. To be noted: PD-L1 internalization in human whole blood, CD14+ cells, interferon γ, 24 hour. Type of series: cell-based.
Series [1] in a line: In vivo pharmacokinetics in rats. Further details: species or system Sprague Dawley rats. To be noted: rat, cassette dosing; for AUC(0-inf) / Cmax / F: 3.0 mg/kg PO; for Vd: read-out: Vss. Here is the method: For in vivo pharmacokinetic experiments, test compounds were administered to male Sprague Dawley rats or male and female Cynomolgus monkeys intravenously or via oral gavage. For intravenous (IV) dosing, test compounds were dosed at 0.5 to 1 mg/kg using a formulation of 10% dimethylacetamide (DMAC) in acidified saline via IV bolus for rat and 5 min or 10 min IV infusion for monkey. For oral (PO) dosing, test compounds were dosed at 1.0 to 3.0 mg/kg using 5% DMAC in 0.5% methylcellulose in citrate buffer (pH 3.5). Blood samples were collected at predose and various time points up to 24 hours postdose. All blood samples were collected using EDTA as the anticoagulant and centrifuged to obtain plasma samples. The plasma concentrations of test compounds were determined by LC-MS methods. The measured plasma concentrations were used to calculate PK parameters by standard noncompartmental methods using Phoenix® WinNonlin software program (version 7.0, Pharsight Corporation).
In rats and monkeys, cassette dosing of test compounds were conducted to obtain preliminary PK parameters.

The subject of series [2] is U2OS/PD-L1 cells and Jurkat-PD-1-SHP cells. In words: Src homology region 2 domain-containing phosphatase (SHP) assay. To be noted: PathHunter chemiluminescence, 2 hours. The format is cell-based. In a few lines: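 U2OS/PD-L1 cells and Jurkat-PD-1-SHP cells, 5000 each, were co-incubated with compound for 2 h at 37 °C in RPMI with 1% FBS. PathHunter enzyme-fragment complementation chemiluminescence reported PD-1/SHP recruitment. IC50 was fitted from percent of DMSO-control activity versus log concentration.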

Series [3] has as its system PD-L1 aAPC/CHO-K1 cells and Jurkat-PD-1-NFAT effector cells. The series is described as follows: Nuclear factor of activated T-cells (NFAT) assay. Type of series: cell-based. The conditions noted are these: luminescence, 24 hours. A digest of the protocol:
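PD-L1 aAPC/CHO-K1 cells (8000/well) co-cultured with Jurkat-PD-1-NFAT effector cells (10,000/well) plus compound in RPMI/1% FBS, 0.4% DMSO, top concentration 2 μM, 24 h at 37 °C. NFAT luciferase read by Bio-Glo luminescence. Fold induction normalized to DMSO; maximum induction relative to control compound; EC50 from curve fit.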

The target of the next series is PD-1/PD-L1 (Homo sapiens (Human), UniProt Q9NZQ7). In words: Homogeneous Time-Resolved Fluorescence (HTRF) PD-1/PD-L1 binding assay. To be noted: recombinant human PD-1 and PD-L1. In a few lines:
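Human PD-1 (25-167, Fc-tagged; 3 nM) and PD-L1 (19-238, His-tagged; 10 nM) were preincubated 40 min with inhibitors in PBS pH 7.4, 0.05% Tween-20, 0.1% BSA, 1% DMSO, at 25 °C. Eu-anti-human IgG (1 nM) and anti-His-APC (20 nM) were added for 60 min. The 665/620 nm HTRF ratio gave IC50 by curve fitting.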
On the technique in general: In TR-FRET formats the signal depends on donor and acceptor labels being close together.

Where [4] appears, read: male, Sprague-Dawley, plasma, 1.0 mg/kg IV.
[5] abbreviates: male, Sprague-Dawley, plasma, read-out: AUC0-inf.

Read-outs that look alike come from different tables or passages of the source.

Sequence of PD-L1 (Q9NZQ7 19-290): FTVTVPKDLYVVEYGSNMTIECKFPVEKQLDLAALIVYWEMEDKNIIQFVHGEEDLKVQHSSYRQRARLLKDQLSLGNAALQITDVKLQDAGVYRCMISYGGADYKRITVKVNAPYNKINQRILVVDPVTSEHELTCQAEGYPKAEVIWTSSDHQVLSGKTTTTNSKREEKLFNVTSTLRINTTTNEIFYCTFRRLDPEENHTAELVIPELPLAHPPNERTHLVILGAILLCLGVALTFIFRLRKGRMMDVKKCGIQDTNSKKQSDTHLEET
Sequence of PD-1/PD-L1 (Q9NZQ7 19-238): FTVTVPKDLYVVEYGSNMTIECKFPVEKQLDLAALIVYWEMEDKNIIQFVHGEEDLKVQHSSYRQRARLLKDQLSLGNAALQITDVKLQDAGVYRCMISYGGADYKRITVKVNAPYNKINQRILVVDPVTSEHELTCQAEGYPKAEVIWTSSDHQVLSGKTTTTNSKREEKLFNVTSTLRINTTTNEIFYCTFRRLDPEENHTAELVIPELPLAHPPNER

`Cn1c(C(=O)Nc2cccc(-c3cccc(NC(=O)c4nc5c(n4C)CCN(CC46CCC(C(=O)O)(CC4)C6)C5)c3Cl)c2Cl)nc2c1CCN(CCO)C2` [Example 180] yielded an IC50 on PD-L1 of 166 nM. In series [1] (1.0 mg/kg IV), this compound registered a Cl of 26.2 mL/min/kg, a Vss of 2.48 L/kg and a t1/2 of 2.21 h. In series [1], this compound had an AUC(0-inf) of 0.956 µM·h, a Cmax of 231 nM and an F of 38%. This compound had an IC50 in series [2] of 4.4 nM. The EC50 in series [3] amounted to 30 nM. Besides, the IC50 at PD-1/PD-L1 was found to be 1.5 nM.
As for `Cc1c(-c2nc3cc(CN4CC[C@@H](O)C4)cc(C#N)c3o2)cccc1-c1cccc(NC(=O)c2nc3c(n2C)CCN(CCC2CCC(C(=O)O)CC2)C3)c1Cl` (stereo partly shown) [Example 265], the IC50 on PD-L1 was determined as 62 nM; in series [2] (Homo sapiens, U2OS), 4.9 nM; at PD-1/PD-L1 it was 2.3 nM. Also, the clearance in series [1] (setting [4]) was 63.7 mL/min/kg. In addition, the Vd in series [1] (setting [4]) is 4.45 L/kg. This compound also came in with a Cmax in series [1] (male, Sprague-Dawley, plasma) of 57 nM. The AUC(0-inf) in series [1] (setting [5]) is 0.398 µM·h. Also, the F in series [1] worked out at 8%. In series [3] (Cricetulus griseus, CHO-K1), this compound came in with an EC50 of 15 nM.
As to `Cc1c(-c2nc3cc(CN4CC[C@@H](O)C4)cc(C#N)c3o2)cccc1-c1cccc(NC(=O)c2nc3c(n2C)CCN(CC24CCC(C(=O)O)(CC2)C4)C3)c1Cl` [Example 267], the IC50 against PD-L1 came to 121 nM; in series [2] (Homo sapiens, U2OS), 7.8 nM; on PD-1/PD-L1, 2.3 nM. The half-life in series [1] (setting [4]) was 3.28 h. For the same compound, the Vd in series [1] (setting [4]) was 2.22 L/kg. The Cmax in series [1] (male, Sprague-Dawley, plasma) turned out to be 108 nM. Besides, the AUC(0-inf) in series [1] (setting [5]) was 0.687 µM·h. Moreover, the F in series [1] amounted to 12%. In addition, in series [3] (Cricetulus griseus, CHO-K1), the EC50 is 39 nM.

A word on the IC50: it is the concentration that gives 50% inhibition. As usually defined, the Vss is a proportionality between amount in the body and measured concentration, not a real space. A high value points to wide distribution into tissue. For orientation: Cmax means the peak of the concentration-time curve. The term EC50 denotes the concentration needed to bring the measured effect to its halfway point. The clearance is the volume of plasma or blood freed of the substance per unit of time. Low readings indicate a low capacity for elimination, high ones a high capacity for elimination. What is called half-life is how long it takes for the measured level to halve. Low readings indicate fast loss, high ones slow loss.

(Values after patent publication US11401279B2, “Pyrido[3,2-d]pyrimidine compounds as immunomodulators” (Incyte Corporation, priority 2019, dated 2022).)
